The record followed here is PMC9871236, “Differentiated HT22 cells as a novel model for in vitro screening of serotonin reuptake inhibitors” (Frontiers in Pharmacology, 2023).

For this assay, the target named is T1, serotonin transporter (SERT) (Mus musculus, UniProt Q60857).
T1 construct: gene Slc6a4
Put plainly: fluoxetine-sensitive accumulation of fluorescent substrate ([…]) in HT22 cells. Type of assay: cell-based.

The structures appear in SMILES notation.

T1 sequence (Q60857 whole entry): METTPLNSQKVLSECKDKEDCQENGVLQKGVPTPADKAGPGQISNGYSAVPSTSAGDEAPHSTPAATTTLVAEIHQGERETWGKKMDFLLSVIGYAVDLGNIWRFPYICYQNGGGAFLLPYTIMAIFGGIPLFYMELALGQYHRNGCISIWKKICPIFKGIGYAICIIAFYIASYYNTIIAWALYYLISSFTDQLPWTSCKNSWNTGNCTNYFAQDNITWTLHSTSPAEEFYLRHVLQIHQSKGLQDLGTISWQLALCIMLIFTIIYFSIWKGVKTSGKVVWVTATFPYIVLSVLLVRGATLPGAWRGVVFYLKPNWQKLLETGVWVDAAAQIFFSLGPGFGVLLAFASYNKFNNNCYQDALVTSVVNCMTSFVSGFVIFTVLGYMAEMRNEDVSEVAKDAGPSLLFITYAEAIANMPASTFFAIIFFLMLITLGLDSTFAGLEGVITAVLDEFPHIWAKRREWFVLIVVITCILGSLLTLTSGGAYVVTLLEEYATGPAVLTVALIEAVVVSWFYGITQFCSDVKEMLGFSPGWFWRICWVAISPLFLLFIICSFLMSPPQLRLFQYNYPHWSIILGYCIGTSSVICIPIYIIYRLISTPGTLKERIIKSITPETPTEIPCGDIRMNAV

`CN(C)c1ccc(-c2cc[n+](C)cc2)cc1` [APP+, 4-(4-(dimethylamino)phenyl)-1-methylpyridinium iodide]: the “fluoxetine-sensitive accumulation of fluorescent substrate (10 uM) in HT22 cells” value is “A significant increase in APP^+ reuptake was detected in differentiated HT22 cells compared to undifferentiated cells”.
